Experimental findings from patent US20230056205A1, “SUBSTITUTED 4,6-DIHYDROSPIRO[[1,2,3]TRIAZOLO[4,5-B]PYRIDINE-7,3'-INDOLINE]-2',5(3H)-DIONE ANALOGUES” (The Board of Regents of The University of Texas System, priority 2019, published 2023) are described below.

Where two headings read alike, the source gives them in different places. Bounds are passed on as bounds.

Series [1] in a line: Cytotoxicity assay (CellTiter-Glo). The series is classed as cell-based. As to conditions: human, Huh7 cells stably expressing DENV-2 replicon. The method, then:
Cytotoxicity Assay. Huh7 cells or Huh7 replicon cells were seeded in a 96-well plate. After incubation at 37° C. with 5% CO2 overnight, the cells were treated with 2-fold serial dilutions of compounds. Experiments were performed in duplicates. After 48 h of incubation, cell viability was measured by adding the CellTiter-Glo reagent (Promega) to each well. The cell viability in 0.45% DMSO-treatment groups was treated at 100%. The cell viability in compound-treated wells was normalized to that of DMSO-treated wells. CC50 values were calculated using four parameter logistic regression in GraphPad software Prism 8.0.
In general terms: In ATP-based viability assays light output follows the ATP content of the culture.

Series [2] deals with DENV-4 replicon. Briefly: Luciferase reporter replicon-based screening, DENV-4. The series is classed as cell-based, DENV-4 (strain D4MY01-22713). Conditions: Dengue virus, DENV4, Huh-7, 48 h, read-out: EC50 DENV-4. The procedure:
(§1) Luciferase Reporter Replicon-Based Screening. Huh7 cells containing a luciferase reporter replicon of DENV-1 (strain WestPac), DENV-2 (New Guinea C strain, NGC), DENV-3 (strain D3MY05-34640) and DENV-4 (strain D4MY01-22713) were used in this study. The replicon cells containing the Renilla luciferase and neomycin-resistance genes were generated using a similar strategy as described previously.^55 Briefly, Huh7 DENV-1 to -4 replicon cells were seeded at a density of 10k per well in a 96-well microplate. After incubation at 37° C. with 5% CO2 overnight, the cells were treated with 2-fold serial dilutions of compounds. Experiments were performed in duplicates. After 48 h of incubation, luciferase activities were measured using the EnduRen live-cell substrate (Promega) by following the manufacturer’s instructions. The dose-dependent curve was plotted and EC50 values were calculated using four parameter logistic regression in GraphPad software Prism 8.0.

The subject of series [3] is DENV-1 replicon. The series is described as follows: Luciferase reporter replicon-based screening, DENV-1. The series is classed as cell-based, DENV-1 (strain WestPac). Conditions: Dengue virus, DENV1, Huh-7, 48 h, read-out: EC50 DENV-1. The method, then:
as §1

The subject of series [4] is DENV-3 replicon. The series is described as follows: Luciferase reporter replicon-based screening, DENV-3. Format: cell-based, DENV-3 (strain D3MY05-34640). The procedure:
as §1
In general terms: In a reporter assay the amount or activity of a reporter protein is the signal.

Series [5] has as its system DENV-2 replicon. Briefly: Luciferase reporter replicon-based screening, DENV-2. The series is classed as cell-based, DENV-2 (New Guinea C strain, NGC). The method, then: as §1
The mark [6] stands for this setting: Dengue virus, DENV3, Huh-7, 48 h, read-out: EC50 DENV-3, Huh7 cells stably expressing DENV-3 replicon, 48 h.
[7] abbreviates: Dengue virus, DENV2, Huh-7, 48 h, read-out: EC50 DENV-2, Huh7 cells stably expressing DENV-2 replicon, 48 h.
The mark [8] stands for this setting: read-out: EC50 DENV-3, Huh7 cells stably expressing DENV-3 replicon, 48 h.
Setting [9] is: read-out: EC50 DENV-2, Huh7 cells stably expressing DENV-2 replicon, 48 h.

Turning to `C[C@@H](c1ccc(Cl)cc1)n1nnc2c1NC(=O)C[C@]21C(=O)N(Cc2ccc(Cl)c(F)c2)c2ccc(Cl)cc21` [Compound 28, (R)-5'-Chloro-1'-(4-chloro-3-fluorobenzyl)-3-((S)-1-(4-chlorophenyl)ethyl)-4,6-dihydrospiro[[1,2,3]triazolo[4,5-b]pyridine-7,3'-indoline]-2',5(3H)-dione], the 50% cytotoxic concentration (CC50) (in general, the concentration at which the toxic effect on the cells reaches its halfway point) at 48 h in series [1] is more than 10000 nM. For the same molecule, the 50% effective concentration (EC50) (as a rule, the concentration giving half of the maximal effect) in series [2] was found to be 5100 nM; in series [3], 1500 nM; in series [4] (setting [6]), 290 nM; in series [5] (setting [7]), 4000 nM.
In the case of `C[C@@H](c1ccc(Cl)cc1)n1nnc2c1NC(=O)C[C@]21C(=O)N(CCF)c2ccc(Cl)cc21` [Compound 46, (R)-5'-Chloro-3-((S)-1-(4-chlorophenyl)ethyl)-1'-(2-fluoroethyl)-4,6-dihydrospiro[[1,2,3]triazolo[4,5-b]pyridine-7,3'-indoline]-2',5(3H)-dione], the CC50 at 48 h in series [1] was more than 10000 nM. For the same molecule, the EC50 in series [2] is more than 5000 nM; in series [3], more than 5000 nM; in series [4] (setting [6]), 9 to 76 nM; in series [4] (setting [8]), 9 nM; in series [5] (setting [7]), 37 to 290 nM; in series [5] (setting [9]), 38 nM.
As for `C[C@@H](c1ccc(Cl)cc1)n1nnc2c1NC(=O)C[C@]21C(=O)N(CCN2CCOCC2)c2ccc(Cl)cc21` [Compound 55, (R)-5'-chloro-3-((S)-1-(4-chlorophenyl)ethyl)-1'-(2-morpholinoethyl)-4,6-dihydrospiro[[1,2,3]triazolo[4,5-b]pyridine-7,3'-indoline]-2',5(3H)-dione], the CC50 at 48 h in series [1] was more than 10000 nM. The EC50 is more than 5000 nM in series [2], more than 5000 nM in series [3], 17 nM in series [4] (setting [6]) and 75 nM in series [5] (setting [7]).
As to `C[C@@H](c1ccc(Cl)cc1)n1nnc2c1NC(=O)C[C@]21C(=O)N(CCCCN(C)C)c2ccc(Cl)cc21` [Compound 66, (R)-5'-Chloro-3-((S)-1-(4-chlorophenyl)ethyl)-1'-(4-(dimethylamino)butyl)-4,6-dihydrospiro[[1,2,3]triazolo[4,5-b]pyridine-7,3'-indoline]-2',5(3H)-dione], the CC50 at 48 h in series [1] is more than 10000 nM. The EC50 in series [2] is more than 5000 nM; in series [3], more than 5000 nM; in series [4] (setting [6]), 38 nM; in series [5] (setting [7]) it was 190 nM.
In turn, `C[C@@H](c1ccc(Cl)cc1)n1nnc2c1NC(=O)C[C@]21C(=O)N(CCCBr)c2ccc(Cl)cc21` [Compound 47, (R)-1'-(3-Bromopropyl)-5'-chloro-3-((S)-1-(4-chlorophenyl)ethyl)-4,6-dihydrospiro[[1,2,3]triazolo[4,5-b]pyridine-7,3'-indoline]-2',5(3H)-dione] had a CC50 at 48 h in series [1] of more than 10000 nM. The EC50 amounted to 3200 nM in series [2], 2400 nM in series [3], 76 nM in series [4] (setting [6]) and 250 nM in series [5] (setting [7]).
The molecule `C[C@@H](c1ccc(Cl)cc1)n1nnc2c1NC(=O)C[C@]21C(=O)N(CCCCCCCCBr)c2ccc(Cl)cc21` [Compound 50, (R)-1'-(8-bromooctyl)-5'-chloro-3-((S)-1-(4-chlorophenyl)ethyl)-4,6-dihydrospiro[[1,2,3]triazolo[4,5-b]pyridine-7,3'-indoline]-2',5(3H)-dione] yielded a CC50 at 48 h in series [1] of more than 10000 nM. Further, in series [5] (setting [7]), the EC50 is more than 5000 nM.
Take `C[C@@H](c1ccc(Cl)cc1)n1nnc2c1NC(=O)C[C@]21C(=O)N(CCCCN2CCCCC2)c2ccc(Cl)cc21` [Compound 67, (R)-5'-Chloro-3-((S)-1-(4-chlorophenyl)ethyl)-1'-(4-(piperidin-1-yl)butyl)-4,6-dihydrospiro[[1,2,3]triazolo[4,5-b]pyridine-7,3'-indoline]-2',5(3H)-dione]: the CC50 at 48 h in series [1] is more than 10000 nM. In addition, the EC50 in series [2] was more than 5000 nM; in series [3], more than 5000 nM; in series [4] (setting [6]) it was 78 nM; in series [5] (setting [7]), 350 nM.
As to `COC(=O)CN1C(=O)[C@]2(CC(=O)Nc3c2nnn3[C@@H](C)c2ccc(Cl)cc2)c2cc(Cl)ccc21` [Compound 43, Methyl 2-((R)-5'-chloro-3-((S)-1-(4-chlorophenyl)ethyl)-2',5-dioxo-3,4,5,6-tetrahydrospiro[[1,2,3]triazolo[4,5-b]pyridine-7,3'-indolin]-1'-yl)acetate], the CC50 at 48 h in series [1] was more than 10000 nM. The EC50 was more than 5000 nM in series [2], more than 5000 nM in series [3], 9 to 76 nM in series [4] (setting [6]) and 11 nM in series [4] (setting [8]).
For `C[C@@H](c1ccc(Cl)cc1)n1nnc2c1NC(=O)C[C@]21C(=O)N(Cc2ccccn2)c2ccc(Cl)cc21` [Compound 33, (R)-5'-chloro-3-((S)-1-(4-chlorophenyl)ethyl)-1'-(pyridin-2-ylmethyl)-4,6-dihydrospiro[[1,2,3]triazolo[4,5-b]pyridine-7,3'-indoline]-2',5(3H)-dione], the CC50 at 48 h in series [1] is more than 10000 nM. For the same molecule, the EC50 was more than 5000 nM in series [2], more than 5000 nM in series [3], 3 nM in series [4] (setting [6]) and 20 nM in series [5] (setting [7]).
Turning to `C[C@@H](c1ccc(Cl)cc1)n1nnc2c1NC(=O)C[C@]21C(=O)N(CCCCCl)c2ccc(Cl)cc21` [Compound 48, (R)-5'-Chloro-1'-(4-chlorobutyl)-3-((S)-1-(4-chlorophenyl)ethyl)-4,6-dihydrospiro[[1,2,3]triazolo[4,5-b]pyridine-7,3'-indoline]-2',5(3H)-dione], the CC50 at 48 h in series [1] is more than 10000 nM. In addition, the EC50 in series [2] is more than 5000 nM; in series [3], more than 5000 nM; in series [5] (setting [7]), 37 to 290 nM; in series [5] (setting [9]), 73 nM.
`C[C@@H](c1ccc(Cl)cc1)n1nnc2c1NC(=O)C[C@]21C(=O)N(Cc2ccc(F)cc2)c2ccc(Cl)cc21` [Compound 25, (R)-5'-Chloro-3-((S)-1-(4-chlorophenyl)ethyl)-1'-(4-fluorobenzyl)-4,6-dihydrospiro[[1,2,3]triazolo[4,5-b]pyridine-7,3'-indoline]-2',5(3H)-dione] had a CC50 at 48 h in series [1] of more than 10000 nM. Also, the EC50 is 10000 nM in series [2], 5000 nM in series [3], 140 to 290 nM in series [5] (setting [7]) and 160 nM in series [5] (setting [9]).
For the molecule `COCOCCN1C(=O)[C@]2(CC(=O)Nc3c2nnn3[C@@H](C)c2ccc(Cl)cc2)c2cc(Cl)ccc21` [Compound 38, (R)-5'-Chloro-3-((S)-1-(4-chlorophenyl)ethyl)-1'-(2-(methoxymethoxy)ethyl)-4,6-dihydrospiro[[1,2,3]triazolo[4,5-b]pyridine-7,3'-indoline]-2',5(3H)-dione], the CC50 at 48 h in series [1] is more than 10000 nM. The EC50 in series [2] and in series [3] was more than 5000 nM in each case.
In series [1], `C[C@@H](c1ccc(Cl)cc1)n1nnc2c1NC(=O)C[C@]21C(=O)N(Cc2cccc(F)c2)c2ccc(Cl)cc21` [Compound 26, (R)-5'-Chloro-3-((S)-1-(4-chlorophenyl)ethyl)-1'-(3-fluorobenzyl)-4,6-dihydrospiro[[1,2,3]triazolo[4,5-b]pyridine-7,3'-indoline]-2',5(3H)-dione] yielded a half-maximal cytotoxic concentration (CC50) at 48 h of more than 10000 nM. The figures for the concentration giving a half-maximal response (EC50) in series [2] and in series [3] were more than 5000 nM and 10000 nM, respectively.
With `C[C@@H](c1ccc(Cl)cc1)n1nnc2c1NC(=O)C[C@]21C(=O)N(CC(=O)O)c2ccc(Cl)cc21` [Compound 45, 2-((R)-5'-Chloro-3-((S)-1-(4-chlorophenyl)ethyl)-2',5-dioxo-3,4,5,6-tetrahydrospiro[[1,2,3]triazolo[4,5-b]pyridine-7,3'-indolin]-1ʹ-yl)acetic acid], in series [1], the CC50 at 48 h was more than 10000 nM. The EC50 in series [5] (setting [7]) is 2400 nM.
For `CCOC(CN1C(=O)[C@]2(CC(=O)Nc3c2nnn3[C@@H](C)c2ccc(Cl)cc2)c2cc(Cl)ccc21)OCC` [Compound 41, (R)-5'-Chloro-3-((S)-1-(4-chlorophenyl)ethyl)-1'-(2,2-diethoxyethyl)-4,6-dihydrospiro[[1,2,3]triazolo[4,5-b]pyridine-7,3ʹ-indoline]-2',5(3H)-dione], in series [1], the CC50 at 48 h was more than 10000 nM. Further, the concentration giving a half-maximal response (EC50) in series [2] and in series [3] was more than 5000 nM throughout.
As for `C[C@@H](c1ccc(Cl)cc1)n1nnc2c1NC(=O)C[C@]21C(=O)N(CCCCCCBr)c2ccc(Cl)cc21` [Compound 49, (R)-1'-(6-Bromohexyl)-5'-chloro-3-((S)-1-(4-chlorophenyl)ethyl)-4,6-dihydrospiro[[1,2,3]triazolo[4,5-b]pyridine-7,3'-indoline]-2ʹ,5(3H)-dione], in series [1], the 50% cytotoxic concentration (CC50) at 48 h was more than 10000 nM. Also, in series [5] (setting [7]), the EC50 was found to be 3000 nM.
